Measured values as given in patent US11185100B2 (priority 2014, dated 2021).
Counter-ions that a name gives are not always drawn. Like-named read-outs stand apart in the source and are kept apart here.

Target: cat T1R1/T1R3 receptor (Felis catus, UniProt E3UMS2)
Experiment: cell-based
Type: cell-based
Text: Methods: HEK293 cells that stably express T1R3 and inducibly express T1R1 were exposed to nucleotide derivatives alone or in combination with one or more amino acids and/or one or more nucleotides to activate the umami receptor. Activation of the T1R1/T1R3 receptor was detected by a change in intracellular calcium levels using a calcium sensitive fluorescent dye and/or a luminescent reporter system. Cells that express T1R3 but not T1R1 were used as a control. A FLIPR® Tetra or a FlexStation® 3 was used for data capture.

[1] = in the presence of 20 mM alanine, read-out: EC50- with Ala
[2] = threshold amount that activates the receptor, in the presence of 20 mM alanine
[3] = in the presence of 20 mM alanine, relative to response with IMP
[4] = in the presence of 20 mM alanine

Structure (SMILES)	Max resp. (ΔF/F)	Threshold	Activity (+Alanine (20 mM))	Max. resp. % of IMP (hek293 cells)	Activity	EC50	EC50 (read-out: EC50- with Ala)	EC50 [1]	Threshold [2]	Max. resp. % of IMP [3]	Max resp. (ΔF/F) [4]
Nc1ncnc2c1nc(Cl)n2[C@@H]1O[C@H](COP(=O)(O)O)C(O)C1O (stereo partly drawn) [8-Chloroadenosine-5′-O-monophosphate]	0.79 ΔF/F	0.2 mM	active	63.6 % of IMP	–	–	–	–	–	–	–
Nc1nc2c(ncn2[C@@H]2O[C@H](COP(=O)(O)OP(=O)(O)OP(=O)(O)O)[C@@H](O)[C@H]2O)c(=O)[nH]1 [Guanosine 5′-triphosphate]	1.8075 ΔF/F	0.175 mM	–	145.5 % of IMP	active	700 µM	–	–	–	–	–
O=c1ccn([C@H]2O[C@@H](COP(=O)(O)O)[C@H](O)[C@@H]2O)c(=O)[nH]1 (stereo in doubt) [Uridine 5′-monophosphate disodium salt, reference compound]	0.2316 ΔF/F	3.000 mM	–	23.9 % of IMP	active	–	–	–	–	–	–
CNc1ccccc1C(=O)O[C@@H]1[C@H](O)[C@@H](COP(=O)(O)O)O[C@H]1n1cnc2c(=O)[nH]c(N)nc21	–	–	active	–	–	–	–	–	–	–	–
O=P(O)(O)OC[C@H]1O[C@@H](n2cnc3c2ncn2ccnc32)C[C@@H]1O [2′-Deoxy-1,N6-ethenoadenosine-5′-O-monophosphate]	0.87 ΔF/F	0.05 mM	–	70.0 % of IMP	active	–	–	–	–	–	–
Nc1ncnc2c1ncn2[C@H]1C[C@H](O)[C@@H](COP(O)(O)=S)O1 [2′-Deoxyadenosine-5′-O-monophosphorothioate]	1.0375 ΔF/F	0.015 mM	–	83.5 % of IMP	active	–	60 µM	–	–	–	–
CNc1ncnc2c1ncn2[C@H]1C[C@H](OP(=O)(O)O)[C@@H](COP(=O)(O)O)O1 [MRS 2179 ammonium salt hydrate, 2′-Deoxy-N^6-methyl adenosine 3′,5′-diphosphate diammonium salt]	1.8150 ΔF/F	0.013 mM	–	146.1 % of IMP	active	–	–	–	–	–	–
CNc1ccccc1C(=O)O[C@H]1C[C@H](n2cnc3c(N)ncnc32)O[C@@H]1COP(=O)(O)O [2′-Deoxy-3′-O-(N′-methylanthraniloyl)adenosine-5′-O-monophosphate]	0.3975 ΔF/F	0.0025 mM	–	32.0 % of IMP	active	–	–	–	–	–	–
O=P(O)(O)OC[C@H]1O[C@@H](n2cnc3cncnc32)[C@H](O)[C@@H]1O [Purine riboside-5′-O-monophosphate, reference compound]	2.0266 ΔF/F	–	–	209.3 % of IMP	active	–	–	20 µM	0.005 mM	–	–
CC(=O)Nc1nc2c(ncn2[C@@H]2O[C@H](COP(=O)(O)O)[C@@H](O)[C@H]2O)c(=O)[nH]1 [N-Acetyl-5′-GMP]	1.3351 ΔF/F	0.025 mM	–	137.9 % of IMP	active	–	–	100 µM	–	–	–
Nc1nc2c(ncn2[C@@H]2O[C@H](COP(O)(O)=S)C(O)C2O)c(=O)[nH]1 (stereo partly drawn) [Guanosine-5′-monophosphorothioate]	1.29 ΔF/F	0.0025 mM	–	103.8 % of IMP	active	10 µM	–	–	–	–	–
Nc1nc2c(ncn2[C@H]2C[C@H](O)[C@@H](COP(O)(O)=S)O2)c(=O)[nH]1 [2′-Deoxyguanosine-5′-O-monophosphorothioate]	0.8446 ΔF/F	0.005 mM	–	87.2 % of IMP	active	–	20 µM	–	–	–	–
Nc1nc2c(ncn2[C@@H]2O[C@H](COP(=O)(O)O)[C@@H](O)[C@H]2O)c(=O)[nH]1 [GMP, guanosine monophosphate, reference compound]	–	0.008 mM	–	–	–	–	–	–	–	–	–
NC(=O)c1ncn(C2OC(COP(=O)(O)O)C(O)C2O)c1N [5-Aminoimidazole-4-carboxamide-1-β-D-ribofuranosyl 5′-monophosphate]	0.6985 ΔF/F	0.200 mM	–	72.2 % of IMP	active	–	–	–	–	–	–
Nc1nc2c(ncn2[C@H]2O[C@@H](COP(=O)(O)O)[C@H](O)[C@@H]2O)c(=O)[nH]1 (stereo in doubt) [Guanosine monophosphate disodium salt, reference compound]	1.2786 ΔF/F	0.008 mM	–	132.1 % of IMP	active	30 µM	–	–	–	–	–
Nc1nc2c(ncn2[C@H]2C[C@H](O)[C@@H](COP(=O)(O)O)O2)c(=O)[nH]1 [2′-Deoxyguanosine 5′-monophosphate]	–	–	active	–	–	–	–	–	0.060 mM	61.2 % of IMP	–

Structure (SMILES)	Max resp. (ΔF/F)	Threshold	Activity (+Alanine (20 mM))	Max. resp. % of IMP (hek293 cells)	Activity	EC50	EC50 (read-out: EC50- with Ala)	EC50 [1]	Threshold [2]	Max. resp. % of IMP [3]	Max resp. (ΔF/F) [4]
CNc1ncnc2c1ncn2[C@@H]1O[C@H](COP(=O)(O)O)[C@@H](O)[C@H]1O [N6-Methyladenosine 5′-monophosphate]	0.9907 ΔF/F	0.020 mM	active	102.3 % of IMP	–	–	–	80 µM	–	–	–
NC(=O)c1ncn(C2OC(COP(=O)(O)O)C(O)C2O)n1 (stereo not drawn) [Ribavirin 5′-Monophosphate]	1.5294 ΔF/F	0.175 mM	–	158.0 % of IMP	active	–	–	700 µM	–	–	–
Nc1nc2c(ncn2[C@@H]2O[C@H](COP(=O)(O)OP(=O)(O)O)[C@@H](O)[C@H]2O)c(=O)[nH]1 [Guanosine 5′-diphosphate sodium salt, Guanosine 5′-diphosphate]	1.7550 ΔF/F	0.050 mM	–	141.2 % of IMP	active	–	200 µM	–	–	–	–
O=P(O)(O)OC[C@H]1O[C@@H](n2cnc3c(S)ncnc32)[C@H](O)[C@@H]1O [6-Thioinosine Phosphate]	–	–	active	–	–	–	–	20 µM	0.005 mM	111.7 % of IMP	1.3875 ΔF/F
Nc1nc2c(ncn2[C@@H]2O[C@H](COP(=O)(O)O)[C@@H](O)[C@H]2O)c(=S)[nH]1 [6-thioguanosine-5′-O-monophosphate]	–	0.0002 mM	–	–	–	–	–	–	–	–	–
Nc1ncnc2c1ncn2[C@@H]1O[C@H](COP(O)(O)=S)[C@@H](O)[C@H]1O	–	–	active	–	–	–	–	–	0.003 mM	–	–
O=P(O)(O)OC[C@H]1O[C@@H](n2cnc3c(NC4CCCC4)ncnc32)[C@H](O)[C@@H]1O [N6-Cyclopentyladenosine-5′-O-monophosphate]	1.2317 ΔF/F	0.013 mM	–	127.2 % of IMP	active	–	–	50 µM	–	–	–
O=c1[nH]c(=O)c2ncn([C@@H]3O[C@H](COP(=O)(O)O)[C@@H](O)[C@H]3O)c2[nH]1 [Xanthosine 5′-Monophosphate Disodium Salt]	1.6223 ΔF/F	0.025 mM	–	167.6 % of IMP	active	–	100 µM	–	–	–	–
Nc1nc2c(ncn2[C@H]2CC(O)[C@@H](COP(O)(O)=S)O2)c(=O)[nH]1 (stereo in doubt) [2′-Deoxyguanosine-5′-O-monophosphorothioate]	1.0775 ΔF/F	0.0025 mM	–	86.7 % of IMP	active	10 µM	–	–	–	–	–
Nc1nc(Cl)c2ncn(C3OC(COP(=O)(O)O)C(O)C3O)c2n1 (stereo not drawn) [2-amino-6-chloropurineriboside-5′-O-monophosphate]	–	–	active	–	–	–	–	0.5 µM	0.00013 mM	150.5 % of IMP	1.8700 ΔF/F
Nc1ncnc2c1ncn2[C@H]1C[C@H](O)[C@@H](COP(=O)(O)O)O1 [2′-Deoxyadenosine 5′-monophosphate]	1.1503 ΔF/F	0.035 mM	–	118.8 % of IMP	active	–	140 µM	–	–	–	–
O=P(O)(O)OC[C@H]1O[C@@H](n2cnc3c(Cl)ncnc32)[C@H](O)[C@@H]1O [6-chloropurineriboside-5′-O-monophosphate]	–	–	–	–	–	–	–	2 µM	0.0005 mM	–	–
O=c1[nH]cnc2c1ncn2[C@@H]1O[C@H](COP(=O)(O)OP(=O)(O)O)[C@@H](O)[C@H]1O [Inosine 5′-diphosphate (IDP) sodium salt, inosine 5′-diphosphate (IDP) sodium salt]	–	–	active	–	–	–	650 µM	–	0.1625 mM	33.3 % of IMP	0.3 ΔF/F
Nc1ncnc2c1ncn2C1OC(COP(=O)(O)OS(=O)(=O)O)C(O)C1O (stereo not drawn) [Adenosine 5′-phosphosulfate sodium salt, Adenosine 5′-phosphosulfate]	0.8658 ΔF/F	0.008 mM	–	89.4 % of IMP	–	–	–	–	–	–	–
Nc1ncnc2c1ncn2[C@@H]1O[C@H](COP(=O)(O)O)[C@@H](O)[C@H]1O [Adenosine 5′-monophosphate disodium salt, reference compound]	1.5470 ΔF/F	0.003 mM	–	159.8 % of IMP	active	–	–	–	–	–	–
O=C(Nc1ncnc2c1ncn2[C@@H]1O[C@H](COP(=O)(O)O)[C@@H](O)[C@H]1O)c1ccccc1	–	–	–	–	–	–	–	–	0.3 mM	105.6 % of IMP	1.1 ΔF/F
